In data set [1] the test system is Plasmodium falciparum. In words: NOVARTIS: Inhibition of Plasmodium falciparum 3D7 (drug-susceptible) proliferation in erythrocyte-based infection assay. The format is functional, organism-based. As to conditions: Plasmodium falciparum, 3D7.
For data set [2], the system named is Plasmodium falciparum. The experiment in a line: NOVARTIS: Inhibition of Plasmodium falciparum W2 (drug-resistant) proliferation in erythrocyte-based infection assay. The format is functional, organism-based. Conditions: Plasmodium falciparum, W2; read-out: EC50.
Data set [3] can be described thus: NOVARTIS: Cytotoxicity against human hepatocellular carcinoma cell line (Huh7). The format is toxicity, cell-based, Huh-7. As to conditions: Huh7 cells (hepatocellular carcinoma cell line).

One may read the EC50 as the concentration needed to bring the measured effect to its halfway point. Broadly, the CC50 is the concentration that lowers cell viability or growth by half. Low readings indicate greater toxicity to the cells, high ones lower toxicity to the cells.

Consider `CCOC(=O)c1cn(CC)c2cc(N(C)CCc3ccc(OC)c(OC)c3)c(F)cc2c1=O`, for which the EC50 in the data set on Plasmodium falciparum [1] was determined as 103 nM; with Plasmodium falciparum [2], 26.7 nM. For the same compound, the CC50 in data set [3] is > 100000 nM.
For `O=C(Cc1c(F)cccc1Cl)Nc1cc(C(=O)N2CCN(Cc3ccccc3)CC2)ccc1N1CC2CC(C1)c1cccc(=O)n1C2` (stereo unspecified), the EC50 in the data set with Plasmodium falciparum [1] was found to be 67.2 nM; with Plasmodium falciparum [2], 30 nM. Moreover, the CC50 in data set [3] was > 100000 nM.
For `CCOC(=O)C1=C(C)NC2=C(C(=O)CC(c3ccc(OC)cc3)C2)C1c1ccccc1F` (stereo unspecified), the EC50 is 74.1 nM in the data set with Plasmodium falciparum [1] and 27.1 nM in the data set on Plasmodium falciparum [2]. In data set [3], the CC50 is > 100000 nM.
In the case of `CCOC(=O)C1=C(C)NC2=C(C(=O)CC(c3ccc(OC)c(OC)c3)C2)C1c1ccccc1Br` (stereo unspecified), the values for the EC50 in the data set on Plasmodium falciparum [1] and with Plasmodium falciparum [2] were 73.2 nM and 26.7 nM, respectively. For the same compound, the CC50 in data set [3] is > 100000 nM.
Take `COc1cc(C(=O)NC(C)C)ccc1OC1CCN(CC(c2ccccc2)c2ccccc2)CC1`: the EC50 with Plasmodium falciparum [1] worked out at 74.3 nM; in the data set on Plasmodium falciparum [2] it was 23.6 nM. Further, the CC50 in data set [3] is > 100000 nM.
With `CC(=O)c1ccc(NC(=O)CSc2nnc3c4c(-c5ccc(F)cc5)csc4ncn23)cc1`, the values for the EC50 in the data set on Plasmodium falciparum [1] and in the data set on Plasmodium falciparum [2] were > 12500 nM and 23.9 nM, respectively. Further, the CC50 in data set [3] is > 100000 nM.
As to `COc1ccc(C2CC(=O)C3=C(C2)NC(C)=C(C(=O)OC(C)C)C3c2ccc(F)cc2)cc1` (stereo unspecified), the EC50 in the data set on Plasmodium falciparum [1] amounted to 83.4 nM; in the data set with Plasmodium falciparum [2], 23.2 nM. For the same compound, the CC50 in data set [3] was > 100000 nM.
In the case of `COC(=O)C1=C(C)NC2=C(C(=O)CC(c3ccc(OC)c(OC)c3)C2)C1c1ccccc1C` (stereo unspecified), the EC50 was determined as 125 nM in the data set on Plasmodium falciparum [1] and 31.7 nM in the data set on Plasmodium falciparum [2]. Moreover, in data set [3], the CC50 is > 100000 nM.
Taken in the same sequence, the figures for `O=C(N=CNNc1ccccc1F)c1cc(OCC(F)(F)F)ccc1OCC(F)(F)F` were > 532 nM, < 3.13 nM and > 10000 nM.
Taken in the same sequence, the figures for `CCC(C)OC(=O)C1=C(C)NC2=C(C(=O)CC(c3ccc(OC)cc3)C2)C1c1ccc(O)cc1` (stereo unspecified) were 500 nM, 31.2 nM and > 100000 nM.
For the compound `O=C(O)C(Cc1ccc([N+](=O)[O-])cc1)NS(=O)(=O)c1ccc(OC(F)(F)F)cc1` (stereo unspecified), the EC50 with Plasmodium falciparum [1] came out at 580 nM; with Plasmodium falciparum [2], 3.29 nM. For the same compound, the CC50 in data set [3] is > 10000 nM.
As for `O=C(Nc1ccc2nc3n(c(=O)c2c1)CCCCC3)C(=O)N1CCN(c2ccccc2)CC1`, the EC50 with Plasmodium falciparum [1] stood at 133 nM; in the data set with Plasmodium falciparum [2], 30.8 nM. Also, in data set [3], the CC50 is > 100000 nM.
Consider `CCOC(=O)C1=C(C)NC2=C(C(=O)CC(c3ccc(OC)c(OC)c3)C2)C1c1cccc(Cl)c1Cl` (stereo unspecified), for which the results for the EC50 with Plasmodium falciparum [1] and with Plasmodium falciparum [2] were 32.9 nM and 30.5 nM, respectively. Also, the CC50 in data set [3] was > 100000 nM.
Take `CCCCNCCN1CCN(c2ccc3ccccc3c2)C[C@@H]1c1ccccc1`: the EC50 in the data set with Plasmodium falciparum [1] was 34.5 nM; in the data set on Plasmodium falciparum [2], 2.45 nM. Besides, in data set [3], the midpoint of cytotoxicity, the CC50, lay at 8160 nM.
For `COc1ccc(C2CC(=O)C3=C(C2)NC(C)=C(C(=O)OC2CCCC2)C3c2ccc(Cl)cc2Cl)cc1` (stereo unspecified) the same measures were 126 nM, 34.7 nM and > 100000 nM.
`COc1ccc(C2CC(=O)C3=C(C2)NC(C)=C(C(=O)OC2CCCC2)C3c2ccccc2)cc1` (stereo unspecified): the EC50 worked out at 124 nM in the data set with Plasmodium falciparum [1] and 33.5 nM in the data set with Plasmodium falciparum [2]. In addition, in data set [3], the CC50 is > 100000 nM.
In the case of `COCCOC(=O)C1=C(C)NC2=C(C(=O)CC(c3ccc(OC)cc3)C2)C1c1ccc(Cl)cc1` (stereo unspecified), the EC50 with Plasmodium falciparum [1] came to 167 nM; in the data set on Plasmodium falciparum [2] it was 33.2 nM. Besides, in data set [3], the CC50 is > 100000 nM.
For the compound `O=C(NCCCCCCNC(=O)Nc1ccc(C2=NCCCN2)cc1)Nc1ccc(C2=NCCCN2)cc1`, the EC50 is 108 nM in the data set with Plasmodium falciparum [1] and < 3.28 nM in the data set on Plasmodium falciparum [2]. For the same compound, the CC50 in data set [3] was > 10000 nM.
For `COCCOC(=O)C1=C(C)NC2=C(C(=O)CC(c3ccc(OC)c(OC)c3)C2)C1c1ccccc1C` (stereo unspecified), the EC50 with Plasmodium falciparum [1] amounted to 110 nM; in the data set with Plasmodium falciparum [2] it was 32.3 nM. Moreover, in data set [3], the CC50 is > 100000 nM.
As for `Cc1cc(C(=O)N2CCOc3c(cc(-c4csc5ccccc45)cc3OCCc3ccccn3)C2)n(C)n1`, the EC50 with Plasmodium falciparum [1] is 32.5 nM; with Plasmodium falciparum [2], 13.9 nM. For the same compound, the CC50 in data set [3] amounted to 46900 nM.
With `COC(=O)c1c(-c2c(Cl)cccc2Cl)noc1/C=C/Nc1ccc(Cl)cc1`, the values for the EC50 in the data set on Plasmodium falciparum [1] and with Plasmodium falciparum [2] were 13.5 nM and < 2.95 nM, respectively. Also, in data set [3], the CC50 is > 10000 nM.
Turning to `COc1ccc(C2CC(=O)C3=C(C2)NC(C)=C(C(=O)OC(C)C)C3c2ccccc2Br)cc1` (stereo unspecified), the values for the EC50 with Plasmodium falciparum [1] and with Plasmodium falciparum [2] were 62 nM and 28.5 nM, respectively. Also, the CC50 in data set [3] was > 100000 nM.
Consider `CCOC(=O)C1=C(C)NC2=C(C(=O)CC(c3ccc(OC)c(OC)c3)C2)C1c1ccccc1C` (stereo unspecified), for which the EC50 with Plasmodium falciparum [1] was found to be 134 nM; with Plasmodium falciparum [2], 27.4 nM. For the same compound, the CC50 in data set [3] was > 100000 nM.
Regarding `Cc1ccc(-c2c3c(nc4sc(C(=O)Nc5ccc(F)cc5)c(N)c24)CCC3)cc1`, the figures for the EC50 with Plasmodium falciparum [1] and in the data set with Plasmodium falciparum [2] were 68.8 nM and 27.2 nM, respectively. Also, the CC50 in data set [3] was > 100000 nM.
With `CCOC(=O)c1ccc2c(c1)[C@@H]1C=CC[C@@H]1[C@H](c1cccc(OC)c1OC)N2`, the EC50 in the data set on Plasmodium falciparum [1] came out at 471 nM; in the data set on Plasmodium falciparum [2] it was 31.8 nM. Moreover, the CC50 in data set [3] is > 100000 nM.
For `CCOC(=O)C(=O)N1c2ccc(OCC)cc2-c2c(ssc2=S)C1(C)C`, the EC50 in the data set on Plasmodium falciparum [1] worked out at 252 nM; in the data set with Plasmodium falciparum [2] it was 25.2 nM. Also, in data set [3], the cytotoxic concentration (CC50) was > 100000 nM.
Taken in the same sequence, the figures for `CC(CCc1ccccc1)NCC(O)c1cccc([N+](=O)[O-])c1` (stereo unspecified) were 205 nM, 14.5 nM and 42500 nM.
As for `COC(=O)C1=C(C)NC2=C(C(=O)CC(c3ccc(OC)c(OC)c3)C2)C1c1ccccc1F` (stereo unspecified), the EC50 with Plasmodium falciparum [1] is 50.5 nM; with Plasmodium falciparum [2], 30.6 nM. The CC50 in data set [3] was > 100000 nM.
For `COc1cccc(-c2ccc(O)c(CNCC3CC4C=CC3C43CC3)c2)n1` (stereo unspecified), the EC50 is 153 nM with Plasmodium falciparum [1] and 19.9 nM with Plasmodium falciparum [2]. In data set [3], the CC50 is > 85900 nM.
Regarding `CC1CCC2C(C)C(O)OC3OC4(C)CCC1C32OO4` (stereo unspecified), the values for the EC50 in the data set on Plasmodium falciparum [1] and with Plasmodium falciparum [2] were 7.05 nM and 3.31 nM, respectively. Moreover, the CC50 in data set [3] is > 10000 nM.
Take `CCCOC(=O)C1=C(C)NC2=C(C(=O)CC(c3ccc(OC)cc3)C2)C1c1cccc(Cl)c1Cl` (stereo unspecified): the EC50 with Plasmodium falciparum [1] was found to be 233 nM; in the data set on Plasmodium falciparum [2], 30.8 nM. Further, the CC50 in data set [3] is > 100000 nM.
With `COc1ccc(OC)c(-c2ccc(O)c(CNCC3(N4CCCCC4)CCCCC3)c2)c1`, the concentration giving a half-maximal response (EC50) was 43.7 nM with Plasmodium falciparum [1] and 11.3 nM with Plasmodium falciparum [2]. For the same compound, the CC50 in data set [3] was 38000 nM.
In the case of `CN(c1ccc(Br)cc1)S(=O)(=O)c1ccc2[nH]cc(C(=O)N3CCN(c4ccccc4)CC3)c(=O)c2c1`, the EC50 with Plasmodium falciparum [1] was > 1250 nM; in the data set on Plasmodium falciparum [2] it was < 2.83 nM. Moreover, the CC50 in data set [3] is > 10000 nM.
As to `CCOC(=O)C1=C(C)NC2=C(C(=O)CC(c3ccc(OC)c(OC)c3)C2)C1c1ccccc1F` (stereo unspecified), the 50% effective concentration (EC50) in the data set with Plasmodium falciparum [1] turned out to be 27.6 nM; in the data set on Plasmodium falciparum [2], 26.4 nM. Further, the CC50 in data set [3] was > 100000 nM.
Taken in the same sequence, the figures for `COc1ccc(C2CC(=O)C3=C(C2)NC(C)=C(C(=O)OC(C)C)C3c2ccc([N+](=O)[O-])cc2)cc1OC` (stereo unspecified) were 31.9 nM, 31.8 nM and > 100000 nM.
For `COc1ccc(C2CC(=O)C3=C(C2)NC(C)=C(C(=O)OC(C)C)C3c2ccccc2Br)cc1OC` (stereo unspecified), the EC50 with Plasmodium falciparum [1] turned out to be 13.7 nM; in the data set on Plasmodium falciparum [2], 7.84 nM. For the same compound, the CC50 in data set [3] was found to be 23300 nM.
As to `CCCOC(=O)C1=C(C)NC2=C(C(=O)CC(c3ccc(OC)cc3)C2)C1c1cccc(F)c1` (stereo unspecified), the EC50 with Plasmodium falciparum [1] stood at 72.4 nM; in the data set on Plasmodium falciparum [2] it was 32.9 nM. Also, in data set [3], the CC50 was > 100000 nM.

The values are drawn from ChEMBL document CHEMBL1156829 (Proc Natl Acad Sci U S A, 2008).
